Test results published in PMC6334005, “Ginsenosides Act As Positive Modulators of P2X4 Receptors” (Molecular Pharmacology, 2019).

Legend:
[1] = target: T1, hP2X4 (Homo sapiens, UniProt Q99571); test: YOPRO-1 dye uptake, potentiation of ATP response; format: cell-based; parameters: gene P2RX4; full-length, C-terminal Glu-Glu tag, pcDNA3, stably expressed in HEK-293 cells; homotrimer
T1 sequence (Q99571 1-388): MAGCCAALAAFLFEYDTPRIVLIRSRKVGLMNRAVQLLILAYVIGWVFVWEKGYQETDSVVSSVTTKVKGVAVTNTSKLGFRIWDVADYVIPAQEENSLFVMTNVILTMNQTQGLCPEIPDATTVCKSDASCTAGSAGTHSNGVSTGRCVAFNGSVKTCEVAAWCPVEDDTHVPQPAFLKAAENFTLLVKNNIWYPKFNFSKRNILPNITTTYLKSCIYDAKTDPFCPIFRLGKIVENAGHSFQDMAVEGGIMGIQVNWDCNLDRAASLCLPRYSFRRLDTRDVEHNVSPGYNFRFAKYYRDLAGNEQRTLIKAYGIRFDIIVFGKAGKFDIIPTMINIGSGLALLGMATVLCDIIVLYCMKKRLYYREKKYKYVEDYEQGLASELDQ

[2] = target: T1, hP2X4; test: cell-based; parameters: gene P2RX4

EC50 [1] [µM] | EC50 [2] [µM] | SMILES
10.5 | – | CC(C)=CCC[C@](C)(O[C@@H]1O[C@H](CO[C@@H]2O[C@H](CO)[C@@H](O)[C@H](O)[C@H]2O)[C@@H](O)[C@H](O)[C@H]1O)[C@H]1CC[C@]2(C)[C@@H]1[C@H](O)C[C@@H]1[C@@]3(C)CC[C@H](O[C@@H]4O[C@H](CO)[C@@H](O)[C@H](O)[C@H]4O[C@@H]4O[C@H](CO)[C@@H](O)[C@H](O)[C@H]4O)C(C)(C)[C@@H]3CC[C@]12C [Rb1]
7.5 | – | CC(C)=CCC[C@](C)(O[C@@H]1O[C@H](CO)[C@@H](O)[C@H](O)[C@H]1O)[C@H]1CC[C@]2(C)[C@@H]1[C@H](O)C[C@@H]1[C@@]3(C)CC[C@H](O[C@@H]4O[C@H](CO)[C@@H](O)[C@H](O)[C@H]4O[C@@H]4O[C@H](CO)[C@@H](O)[C@H](O)[C@H]4O)C(C)(C)[C@@H]3CC[C@]12C [Rd]
– | 1.92 | Nc1ncnc2c1ncn2[C@@H]1O[C@H](COP(=O)(O)OP(=O)(O)OP(=O)(O)O)[C@@H](O)[C@H]1O [ATP]

SMILES | EC50 [1] [µM] | EC50 [2] [µM]
CC(C)=CCC[C@](C)(O[C@@H]1O[C@H](CO)[C@@H](O)[C@H](O)[C@H]1O)[C@H]1CC[C@]2(C)[C@@H]1[C@H](O)C[C@@H]1[C@@]3(C)CC[C@H](O)C(C)(C)[C@@H]3CC[C@]12C [CK] | 8.5 | –
